These results are taken from patent US20210386826A1, “Combination for Treating Cancer” (Pfizer Inc., priority 2018, published 2021).

For the experiment, the target named is IL-2Rαβ (Homo sapiens, UniProt P01589+P14784). The source says:
The term “CD-122-biased cytokine agonist” (also referred to as an interleukin-2 receptor beta (ILRβ), selective agonist) as used herein, refers to an agonist that has a greater affinity for binding to IL-2Rβ than to IL-2Rαβ.

Chain of IL-2Rαβ (P01589 22-240 limits assumed): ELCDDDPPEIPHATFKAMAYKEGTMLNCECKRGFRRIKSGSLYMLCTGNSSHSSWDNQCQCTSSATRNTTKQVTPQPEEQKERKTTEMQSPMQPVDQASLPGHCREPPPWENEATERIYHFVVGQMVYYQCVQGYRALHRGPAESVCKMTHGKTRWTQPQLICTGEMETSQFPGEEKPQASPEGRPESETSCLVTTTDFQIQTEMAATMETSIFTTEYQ
Chain of IL-2Rαβ (P14784 27-240 limits assumed): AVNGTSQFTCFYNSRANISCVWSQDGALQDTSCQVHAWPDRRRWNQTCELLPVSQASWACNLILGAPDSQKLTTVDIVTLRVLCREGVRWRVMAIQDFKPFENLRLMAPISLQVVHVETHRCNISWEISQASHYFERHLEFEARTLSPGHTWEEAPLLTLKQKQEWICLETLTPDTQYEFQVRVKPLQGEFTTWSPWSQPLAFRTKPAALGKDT

For “(2,7-(bis-methoxyPEG10kD-carboxyamide)(9H-fluorene-9-yl)methyl N-carbamate)6avg interleukin-2 [bempegaldesleukin]”, the “decrease in affinity to IL-2Rαβ relative to IL-2” value is reported as approximately 60 fold.
